In article PMC10669656, “ADMET and Solubility Analysis of New 5-Nitroisatine-Based Inhibitors of CDK2 Enzymes” (Biomedicines, 2023):
Values after ≈ are worked out from the molar mass of the structure shown. Values joined by “and” are separate entries in the source; they are usually repeats but may differ in a detail not shown here. Identical values can stand only once.

Columns and labels:
Type in all cases: physicochemical
[1] = Solubility in DMSO-water binary mixtures; conditions: for solubility at 24 h: 25 °C, thermodynamic from solid
Experimental: (§1) The calibration curves for each derivative were obtained using successful dilutions of initial stock solutions followed by spectrophotometric measurements of the obtained solutions with decreasing concentration. The concentration ranges for the derivatives 1, 2, and 3 were 0.0081–0.0405 mg/mL, 0.0077–0.0385 mg/mL, and 0.0068–0.017 mg/mL, respectively. Methanol was used both as a solvent, as well as a reference for spectrophotometric measurements. […] The A360 spectrophotometer from AOE Instruments was used for the preparation of the calibration curves. […] Three calibration curves were prepared for each derivative and then averaged.
(§2) A multi-step procedure was employed in order to find the solubility of the studied derivatives in the selected solvents. First of all, the excess amount of the considered compound was added to test tubes containing either neat solvents or their mixtures with water in different proportions, thus forming binary solvents. Saturated solutions were obtained in this way, placed in a Shaker Incubator ES-20/60 from Biosan, and incubated for 24 h at 298.1 K. The temperature adjustment was possible with a 0.1-degree accuracy, and the variance within a 24 h cycle was 0.5 degrees. The samples were simultaneously mixed at 60 rev/min. After incubation, the samples were filtered with the help of plastic syringes equipped with PTFE filters with 0.22 µm pore size. The obtained filtrates were diluted with methanol in another set of test tubes. In order to determine the mole fractions of a solute in the solution, 1 mL of the filtered samples was weighed in 10 mL volumetric flasks using a RADWAG AS 110 R2.PLUS analytical balance. The samples diluted with methanol were measured spectrophotometrically using the same instrument as was used in the case of calibration curves. The spectra were recorded in the wavelength range of 190–500 nm, and the resolution was 1 nm. Methanol was used if further dilution of the sample was required, and it was also used as a reference for calibrating the spectrophotometer. The absorbance values at 315 nm, 321 nm, and 321 nm were taken into account for derivatives 1, 2, and 3, respectively. Based on the calibration curves, the concentration of the solute in the samples was determined together with its mole fraction. Three separate measurements were conducted, and the final values are the results of averaging them.

[2] = Solubility in NMP-water binary mixtures; conditions: for solubility at 24 h: thermodynamic from solid
Experimental: as §1, §2

[3] = Solubility in neat solvents, shake-flask with spectrophotometric determination; conditions: for solubility at 24 h: 25 °C, organic solvent or mixture, thermodynamic from solid
Experimental: as §1, §2

[4] = neat γ-nonanoic lactone, 298.1 K

solubility at 24 h ([1]; DMSO-water binary mixture, aqueous with cosolvent or surfactant or cyclodextrin, x*DMSO 0.1, 298.1 K): 88 mg/mL (≈ 233 mM) | solubility at 24 h ([1]; DMSO-water binary mixture, aqueous with cosolvent or surfactant or cyclodextrin, x*DMSO 0.2, 298.1 K): 179 mg/mL (≈ 473 mM) | solubility at 24 h ([1]; DMSO-water binary mixture, aqueous with cosolvent or surfactant or cyclodextrin, x*DMSO 0.3, 298.1 K): 219 mg/mL (≈ 579 mM) | solubility at 24 h ([1]; DMSO-water binary mixture, aqueous with cosolvent or surfactant or cyclodextrin, x*DMSO 0.4, 298.1 K): 261 mg/mL (≈ 690 mM) | solubility at 24 h ([1]; DMSO-water binary mixture, aqueous with cosolvent or surfactant or cyclodextrin, x*DMSO 0.5, 298.1 K): 305 mg/mL (≈ 806 mM) | solubility at 24 h ([1]; DMSO-water binary mixture, aqueous with cosolvent or surfactant or cyclodextrin, x*DMSO 0.6, 298.1 K): 336 mg/mL (≈ 888 mM) | solubility at 24 h ([1]; DMSO-water binary mixture, aqueous with cosolvent or surfactant or cyclodextrin, x*DMSO 0.7, 298.1 K): 356 mg/mL (≈ 941 mM) | solubility at 24 h ([1]; DMSO-water binary mixture, aqueous with cosolvent or surfactant or cyclodextrin, x*DMSO 0.8, 298.1 K): 363 mg/mL (≈ 960 mM) | solubility at 24 h ([1]; DMSO-water binary mixture, aqueous with cosolvent or surfactant or cyclodextrin, x*DMSO 0.9, 298.1 K): 355 mg/mL (≈ 938 mM) | solubility at 24 h ([1]; DMSO-water series, organic solvent or mixture, x*DMSO 1.0, 298.1 K): 327 mg/mL (≈ 864 mM) | solubility x ([1]; x*DMSO 0.1, 298.1 K): 5.27 (0.10) × 10^−3 mole fraction | solubility x ([1]; x*DMSO 0.2, 298.1 K): 1.47 (0.02) × 10^−2 mole fraction | solubility x ([1]; x*DMSO 0.3, 298.1 K): 2.25 (0.03) × 10^−2 mole fraction | solubility x ([1]; x*DMSO 0.4, 298.1 K): 3.25 (0.05) × 10^−2 mole fraction | solubility x ([1]; x*DMSO 0.5, 298.1 K): 4.46 (0.08) × 10^−2 mole fraction | solubility x ([1]; x*DMSO 0.6, 298.1 K): 5.69 (0.15) × 10^−2 mole fraction | solubility x ([1]; x*DMSO 0.7, 298.1 K): 6.72 (0.14) × 10^−2 mole fraction | solubility x ([1]; x*DMSO 0.8, 298.1 K): 7.60 (0.10) × 10^−2 mole fraction | solubility x ([1]; x*DMSO 0.9, 298.1 K): 8.00 (0.14) × 10^−2 mole fraction | solubility x ([1]; x*DMSO 1.0, 298.1 K): 7.70 (0.11) × 10^−2 mole fraction | solubility at 24 h ([2]; NMP-water binary mixture, x*NMP 0.1, 25 °C, aqueous with cosolvent or surfactant or cyclodextrin, x*NMP 0.1, 298.1 K): 56.6 mg/mL (≈ 150 mM) | solubility at 24 h ([2]; NMP-water binary mixture, x*NMP 0.2, 25 °C, aqueous with cosolvent or surfactant or cyclodextrin, x*NMP 0.2, 298.1 K): 111 mg/mL (≈ 293 mM) | solubility at 24 h ([2]; NMP-water binary mixture, x*NMP 0.3, 25 °C, aqueous with cosolvent or surfactant or cyclodextrin, x*NMP 0.3, 298.1 K): 161 mg/mL (≈ 426 mM) | solubility at 24 h ([2]; NMP-water binary mixture, x*NMP 0.4, 25 °C, aqueous with cosolvent or surfactant or cyclodextrin, x*NMP 0.4, 298.1 K): 205 mg/mL (≈ 542 mM) | solubility at 24 h ([2]; NMP-water binary mixture, x*NMP 0.7, 25 °C, aqueous with cosolvent or surfactant or cyclodextrin, x*NMP 0.7, 298.1 K): 285 mg/mL (≈ 753 mM) | solubility at 24 h ([2]; NMP-water binary mixture, x*NMP 0.8, 25 °C, aqueous with cosolvent or surfactant or cyclodextrin, x*NMP 0.8, 298.1 K): 294 mg/mL (≈ 777 mM) | solubility at 24 h ([2]; NMP-water binary mixture, x*NMP 0.9, 25 °C, aqueous with cosolvent or surfactant or cyclodextrin, x*NMP 0.9, 298.1 K): 282 mg/mL (≈ 746 mM) | solubility at 24 h ([2]; NMP-water binary solvent, 25 °C, aqueous with cosolvent or surfactant or cyclodextrin, x*NMP 0.5, 298.1 K): 248 mg/mL (≈ 656 mM) | solubility at 24 h ([2]; NMP-water binary solvent, 25 °C, aqueous with cosolvent or surfactant or cyclodextrin, x*NMP 0.6, 298.1 K): 272 mg/mL (≈ 719 mM) | solubility at 24 h ([2]; NMP-water series, x*NMP 1.0, 25 °C, organic solvent or mixture, x*NMP 1.0, 298.1 K): 265 mg/mL (≈ 701 mM) | solubility x ([2]; x*NMP 0.1, 298.1 K): 3.86 (0.05) × 10^−3 mole fraction | solubility x ([2]; x*NMP 0.2, 298.1 K): 1.05 (0.01) × 10^−2 mole fraction | solubility x ([2]; x*NMP 0.3, 298.1 K): 1.98 (0.04) × 10^−2 mole fraction | solubility x ([2]; x*NMP 0.4, 298.1 K): 3.09 (0.04) × 10^−2 mole fraction | solubility x ([2]; x*NMP 0.6, 298.1 K): 5.77 (0.07) × 10^−2 mole fraction | solubility x ([2]; x*NMP 0.7, 298.1 K): 6.87 (0.11) × 10^−2 mole fraction | solubility x ([2]; x*NMP 0.8, 298.1 K): 7.76 (0.08) × 10^−2 mole fraction | solubility x ([2]; x*NMP 0.9, 298.1 K): 7.96 (0.10) × 10^−2 mole fraction | solubility x ([2]; x*NMP 1.0, 298.1 K): 8.06 (0.25) × 10^−2 mole fraction | solubility at 24 h ([3]; neat DMF, 298.1 K): 119 mg/mL (≈ 315 mM) | solubility at 24 h ([3]; neat DMP, 298.1 K): 0.94 mg/mL (≈ 2.49 mM) | solubility at 24 h ([3]; neat DMSO, 298.1 K): 327 mg/mL (≈ 864 mM) | solubility at 24 h ([3]; neat NMP, 298.1 K): 265 mg/mL (≈ 701 mM) | solubility at 24 h ([3]; neat acetone, 298.1 K): 4.39 mg/mL (≈ 11.6 mM) | solubility at 24 h ([3]; neat acetonitrile, 298.1 K): 2.02 mg/mL (≈ 5.34 mM) | solubility at 24 h ([3]; neat cyrene, 298.1 K): 1.62 mg/mL (≈ 4.28 mM) | solubility at 24 h ([3]; neat diglyme, 298.1 K): 2.52 mg/mL (≈ 6.66 mM) | solubility at 24 h ([3]; neat dioxane, 298.1 K): 4.17 mg/mL (≈ 11 mM) | solubility at 24 h ([3]; neat ethyl lactate, 298.1 K): 1.25 mg/mL (≈ 3.3 mM) | solubility at 24 h ([3]; neat methanol, 298.1 K): 1.51 mg/mL (≈ 3.99 mM) | solubility at 24 h ([3]; neat tetraglyme, 298.1 K): 4.62 mg/mL (≈ 12.2 mM) | solubility at 24 h ([3]; neat triglyme, 298.1 K): 0.95 mg/mL (≈ 2.51 mM) | solubility at 24 h ([3]; neat γ-heptalactone, 298.1 K): 1.78 mg/mL (≈ 4.71 mM) | solubility at 24 h [3, 4]: 1.16 mg/mL (≈ 3.07 mM) | solubility at 24 h ([3]; neat 1-butanol): 0.47 mg/mL (≈ 1.24 mM) | solubility x ([3]; neat 1-butanol, 298.1 K): 1.11 (0.04) × 10^−4 mole fraction | solubility at 24 h ([3]; neat 1-propanol): 0.61 mg/mL (≈ 1.61 mM) | solubility x ([3]; neat 1-propanol, 298.1 K): 1.19 (0.05) × 10^−4 mole fraction | solubility at 24 h ([3]; neat 4FM): 7.22 mg/mL (≈ 19.1 mM) | solubility x ([3]; neat 4FM, 298.1 K): 1.88 (0.04) × 10^−3 mole fraction | solubility x ([3]; neat DMP, 298.1 K): 2.96 (0.11) × 10^−4 mole fraction | solubility x ([3]; neat acetone, 298.1 K): 8.38 (0.16) × 10^−4 mole fraction | solubility x ([3]; neat acetonitrile, 298.1 K): 2.76 (0.12) × 10^−4 mole fraction | solubility x ([3]; neat cyrene, 298.1 K): 4.37 (0.09) × 10^−4 mole fraction | solubility x ([3]; neat diglyme, 298.1 K): 9.43 (0.90) × 10^−4 mole fraction | solubility x ([3]; neat dioxane, 298.1 K): 9.21 (0.21) × 10^−4 mole fraction | solubility at 24 h ([3]; neat ethanol): 0.82 mg/mL (≈ 2.17 mM) | solubility x ([3]; neat ethanol, 298.1 K): 1.26 (0.04) × 10^−4 mole fraction | solubility x ([3]; neat ethyl lactate, 298.1 K): 3.75 (0.10) × 10^−4 mole fraction | solubility x ([3]; neat methanol, 298.1 K): 1.60 (0.05) × 10^−4 mole fraction | solubility x ([3]; neat triglyme, 298.1 K): 4.48 (0.06) × 10^−4 mole fraction | solubility x ([3]; neat γ-heptalactone, 298.1 K): 5.92 (0.08) × 10^−4 mole fraction | solubility x [3, 4]: 4.81 (0.06) × 10^−4 mole fraction | solubility at 24 h ([3]; neat ε-caprolactone): 1.6 mg/mL (≈ 4.23 mM) | solubility x ([3]; neat ε-caprolactone, 298.1 K): 4.42 (0.09) × 10^−4 mole fraction
Structure (SMILES): O=C1Nc2ccc([N+](=O)[O-])cc2C1=NNC(=O)c1ccccc1C(F)(F)F [derivative 1, 2-trifluoromethyl-N′-[5-nitro-2-oxo-1,2-dihydro-3H-indol-3-ylidene]benzohydrazide]
solubility x ([3]; neat DMF, 298.1 K): 2.66 × 10^−2 mole fraction and 2.66 (0.55) × 10^−2 mole fraction | solubility x ([3]; neat DMSO, 298.1 K): 7.70 × 10^−2 mole fraction and 7.70 (0.11) × 10^−2 mole fraction | solubility x ([3]; neat NMP, 298.1 K): 8.06 × 10^−2 mole fraction and 8.06 (0.25) × 10^−2 mole fraction
